# Results: patent US4742057A, “Antiallergic thiazole compounds” (Fujisawa Pharmaceutical Co., Ltd., priority 1985, dated 1988)
# Tested on: anaphylactic asthma in guinea pigs
# Experiment: Antagonistic action on anaphylactic asthma in guinea pigs (prophylactic effect, survival after antigen spraying)
# Type: in vivo, guinea pigs (male Hartley-strain)
# Details: Cavia porcellus; oral, 30 min before egg-white albumin aerosol; survival for not less than 2 hours; passively sensitized guinea pigs
row,Compound,ED50
1,"CS(=O)(=O)Nc1nc(CCN2CCC(c3c[nH]c4ccccc34)CC2)cs1 [Compound C, 4-[2-[4-(3-Indolyl)piperidino]ethyl]2-mesylaminothiazole]",0.02 mg/kg
2,"Nc1nc(CCCN2CCC(c3c[nH]c4ccccc34)CC2)cs1 [Compound F, 4-[3-[4-(3-Indolyl)piperidino]propyl]-2-aminothiazole]",0.3 mg/kg
3,"CCC(=O)Nc1nc(CN2CCC(c3c[nH]c4ccccc34)CC2)cs1 [Compound D, 4-[4-(3-Indolyl)piperidinomethyl]-2-propionylaminothiazole]",0.92 mg/kg
4,"CS(=O)(=O)Nc1nc(CCCN2CCC(c3c[nH]c4ccccc34)CC2)cs1 [Compound G, 4-[3-[4-(3-Indolyl)piperidino]propyl]-2-mesylaminothiazole]",0.03 mg/kg
5,"CC(=O)Nc1nc(CN2CCC(c3c[nH]c4ccccc34)CC2)cs1 [Compound A, 2-Acetylamino-4-[4-(3-indolyl)piperidinomethyl]thiazole]",0.95 mg/kg
6,"CS(=O)(=O)Nc1nc(CN2CCC(c3c[nH]c4ccccc34)CC2)cs1 [Compound B, 4-[4-(3-Indolyl)piperidinomethyl]-2-mesylaminothiazole]",0.086 mg/kg
